Reference: ChEMBL document CHEMBL1143634, “Calculating virtual log P in the alkane/water system (log P(N)(alk)) and its derived parameters deltalog P(N)(oct-alk) and log D(pH)(alk)” (J Med Chem, 2005)

Columns and labels:
[1] = Lipophilicity determined as logarithm of the partition coefficient in the alkane/water system; conditions: octanol/water
[2] = Tested for fraction of oral dose absorbed orally in humans; format: ADME; conditions: human

C=CCc1ccccc1OCC(O)CNC(C)C (stereo not given) [ALPRENOLOL]
Log PNalk [1]: 1.3 | Activity [2]: 96%

Cc1cc(=O)n(-c2ccccc2)n1C [ANTIPYRINE]
Activity [2]: 97%

OC[C@@H](O)[C@@H](O)[C@H](O)[C@H](O)CO [MANNITOL]
Activity [2]: 26%

CC(C)NCC(O)COc1cccc2[nH]ccc12 (stereo not given) [PINDOLOL]
Activity [2]: 92%

O=C(O)c1cc(/N=N/c2ccc(S(=O)(=O)Nc3ccccn3)cc2)ccc1O [SULFASALAZINE]
Fa ([2]; read-out: Activity): 13%

CC(C)(C)c1ccc(C(O)CCCN2CCC(C(O)(c3ccccc3)c3ccccc3)CC2)cc1 (stereo not given) [TERFENADINE]
Log PNalk [1]: 2.63

C[C@]12CC[C@H]3[C@@H](CCC4=CC(=O)CC[C@@]43C)[C@@H]1CC[C@@H]2O [TESTOSTERONE]
Log PNalk [1]: 0.41

CCCCNc1ccc(C(=O)OCCN(C)C)cc1 [TETRACAINE]
Log PNalk [1]: 1.75

C1CCSC1 [TETRAHYDROTHIOPHENE]
Log PNalk [1]: 1.59

Cn1c(=O)c2[nH]cnc2n(C)c1=O.O [THEOPHYLLINE]
Log PNalk [1]: -1.7

CCCC(C)C1(CC)C(=O)NC(=S)NC1=O (stereo not given) [THIOPENTAL]
Log PNalk [1]: 0.52

Cc1ccc(C(C)C)c(O)c1 [THYMOL]
Log PNalk [1]: 1.4

CC(C)(C)NC[C@H](O)COc1nsnc1N1CCOCC1 [TIMOLOL]
Log PNalk [1]: -1

COc1cccc([C@@]2(O)CCCC[C@@H]2CN(C)C)c1 [TRAMADOL]
Log PNalk [1]: 1.82

O=C(O)C(Cl)(Cl)Cl [TRICHLOROACETIC ACID]
Log PNalk [1]: -2.63

CC(Cl)(Cl)Cl [TRICHLOROETHANE]
Log PNalk [1]: 2.71

CC(=O)CC(c1ccccc1)c1c(O)c2ccccc2oc1=O (stereo not given) [WARFARIN]
Log PNalk [1]: 0.05

COc1ccc(C(=O)O)cc1 [p-ANISIC ACID]
Log PNalk [1]: -0.15

Cc1ccc(O)cc1 [p-CRESOL]
Log PNalk [1]: -0.19
